The values that follow come from patent US8450053B2, “ZAP-70 as predictor and modulator of effector function of T cells” (University of Maryland, Baltimore, priority 2007, dated 2013).

Assay type in all cases: cell-based, mouse
The subject of data set [1] is ZAP-70. The data set can be described thus: siRNA-mediated knockdown of ZAP-70 in OVA-specific memory CD4 T cells. The procedure: Cy3-labeled ZAP-70 specific siRNA Sense (5′→3′)/Cy3/GGCGGAUGGACUAAUUUACtt (SEQ ID NO: 10); Antisense (5′→3′) GUAAAUUAGUCCAUCCGCCtt (SEQ ID NO:11) or control GAPDH siRNA obtained from Ambion (Austin, Tex.) was delivered at a final concentration of 5 μM into 1.0×10^6 purified resting memory OVA-specific CD4 T cells using the mouse T cell nucleofector kit (Amaxa Inc., Gaithersburg, Md.) according to the manufacturers instructions and similar to the approach previously employed for siRNA transfections in mouse T cells (Sabbagh et al., 2006, Proc. Natl. Acad. Sci. USA 103:18703-18708). Following nucleofection, cell suspensions were cultured in media in 24 well plates with APC (2×10^6/well) and OVA-peptide (800 ng/ml), followed by incubation at 37° C. for 18 hrs. After 18 hrs, Golgistop (BD Pharmingen, USA) (0.66 μl/ml of culture) was added, cells were incubated for an additional 6 hrs, and subsequently staining for surface expression of CD4, KJ1-26 and CD25, and intracellular expression of ZAP-70 and IFN-γ as above.

The test system of data set [2] is memory CD4 T cells. Kind of data set: Inhibitor assay: OVA-specific memory CD4 T cells stimulated with OVA/APC, flow cytometry and intracellular cytokine staining. The procedure: (§1) Intracellular cytokine staining (ICS) analysis of signaling intermediates and cytokines was performed as previously described (Bingaman et al., 2005, supra; Ahmadzadeh and Farber, 2002, supra). Briefly, naive or memory CD4 T cells were cultured with APC and 800 ng/ml OVA peptide for time points of 0-48 hrs, and monensin (Golgistop™, BD Pharmingen) was added 6 hrs prior to harvesting. Cells were stained with antibodies for surface markers CD4, CD25, CD44, KJ1-26, fixed (Cytofix™ buffer, BD Pharmingen), permeabilized, and stained intracellularly with fluorochrome-conjugated antibodies to cytokines, signaling intermediates, and analyzed by flow cytometry.
(§2) Six-color flow cytometry was performed on BD LSR II flow cytometer (BD Biosciences) using FITC, PE, PERCP and PE-Cy7, allophycocyanin-Cy7, and allophycocyanin as fluorochromes (BD Biosciences, e-biosciences, Invitrogen/caltag). CD4 T cells stained with single color fluorochromes were used for compensation, background values were established with isotype controls, and data were analyzed using BD FACSDiva™ software (BD Biosciences). Fluorochrome-conjugated antibodies directed against CD4 (clone GK1.5), CD25 (PC61), CD69 (H1.2F3), CD62L (MEL-14), CD44 (IM7), CD3ε (145-2C11), IFN-γ (XMG1.2), phospho-ZAP-70 (17-P), phospho-PLC-γ (27/PLC), and phospho-Stat1 (clone 4a) were all purchased from BD-Pharmingen (San Diego, Calif.). PE- and APC-conjugated KJ1-26 specific for the DO11.10 TCR clonotype were purchased from CALTAG Laboratories (Burlingame, Calif.). PE- and FITC-conjugated ZAP-70 (1E7.2) was obtained from Invitrogen (Carlsbad, Calif.), and FITC-conjugated phospho-tyrosine (PT-66) from Sigma (St. Louis, Mo.), and phospho-p38 (28B10) and phospho-erk1/2 (E10) were purchased from Cell signaling technology, Inc. (Danvers, Mass.). For most analyses, a given marker was analyzed using several different fluorochromes to eliminate errors based on compensation.
(§3) Naive or memory CD4 T cells (1×10^6) were cultured with APC (3×10^6) in total volume of 1 ml of Clicks medium containing 800 ng/ml OVA peptide for time points of 0-24 hrs along with inhibitors cycloheximide (Sigma, 50 μg/ml) or piceatannol (Calbiochem, 12 μM of 3,4,3′,5′-tetrahydroxy-trans-stilbene). Solvent alone served as a vehicle control.
(In general: In flow cytometry, cells or beads pass a laser one at a time.)

For data set [3], the system named is naive CD4 T cells. Kind of data set: Inhibitor assay: OVA-specific naive CD4 T cells stimulated with OVA/APC, flow cytometry. The settings on record: cycloheximide 50 μg/ml. The procedure:
as §1, §2, §3

Data set [4] relates to naive and memory CD4 T cells. Kind of data set: Viability of naive and memory CD4 T cells cultured with cycloheximide. The settings on record: after 24 hrs in cycloheximide, average. The procedure:
as §3

Setting [5] is: antigen-stimulated memory CD4 T cells, 24 hrs, cycloheximide 50 μg/ml.
[6] abbreviates: memory CD4 T cells, +/-antigen, 6 hrs, cycloheximide 50 μg/ml.
The mark [7] stands for this setting: naive CD4 T cells, +/-antigen, 6 hrs.
The mark [8] stands for this setting: naive T cells, antigenic stimulation 24 hrs.
Where [9] appears, read: memory CD4 T cells, OVA/APC 6 hrs, piceatannol 12 μM.

“Also recorded” adds a separate entry of the source.

Turning to “ZAP-70 specific siRNA: Cy3-labeled ZAP-70 specific siRNA, sense GGCGGAUGGACUAAUUUACtt (SEQ ID NO: 10), antisense GUAAAUUAGUCCAUCCGCCtt (SEQ ID NO:11) (sense GGCGGAUGGACUAAUUUACTT; antisense GUAAAUUAGUCCAUCCGCCTT; Cy3 label, further chemistry not given here)”, in data set [1] (memory CD4 T cells, ZAP-70 downmodulated using siRNA), the “early IFN-γ production” value is reported as “inhibited”. For the same compound, the “reduction in the proportion of memory T cells producing IFN-γ” value in data set [1] (siRNA 5 μM, OVA/APC 24 hrs, vs siRNA- and GAPDH siRNA transfectants) came to 50%. In addition, in data set [1] (silenced (siRNA+) vs unsilenced (siRNA-) memory CD4 T cells, siRNA 5 μM, OVA/APC 24 hrs), the “ZAP-70 expression (MFI)” value is “reduction in ZAP-70 expression”.
`C[C@@H]1C[C@@H]([C@H](O)CC2CC(=O)NC(=O)C2)C(=O)[C@@H](C)C1` [cycloheximide]: in data set [2] (setting [5]), the CD25 up-regulation entry is recorded as “inhibited” and the “memory CD4 T cells maintaining high level of ZAP-70 expression” value is listed as > 50%. In data set [2] (setting [6]), the intracellular tyrosine phosphorylation entry is “did not affect” and the “resting state level of ZAP-70” value was “did not affect”. Moreover, the p-Tyr levels entry in data set [2] (memory T cells, 24 hrs, cycloheximide 50 μg/ml) is “did not affect”. Further, the “increases in total intracellular p-Tyr levels” value in data set [3] (activated naive CD4 T cells, 24 hrs) is “significantly inhibited”. Further, in data set [3] (setting [7]), the intracellular tyrosine phosphorylation entry was “did not affect” and the “resting state level of ZAP-70” value is listed as “did not affect”. In data set [3] (setting [8]), the “up-regulation of CD25 expression” value is given as “completely inhibited” and the “up-regulation of ZAP-70 expression” value is recorded as “completely inhibited”. Also, the Viability in data set [4] was determined as 70%.
For `Oc1cc(O)cc(/C=C/c2ccc(O)c(O)c2)c1` [piceatannol, 3,4,3′,5′-tetrahydroxy-trans-stilbene], in data set [2] (antigen-stimulated memory CD4 T cells, +/-OVA/APC, six hrs), the “ZAP-70 expression, dose response” value is “reduced ZAP-70 expression in a dose-dependent fashion”. Moreover, in data set [2] (setting [9]), the ZAP-70 expression entry is “specifically reduced”, the “basal level of CD25” value was “without affecting”, the “rapid IFN-γ production” value is “striking inhibition; also recorded: completely blocked” and the “total p-Tyr content” value was “without affecting”.
